Key:
[1] = Dielectric breakdown strength, ASTM D877-13 Procedure A; assay type: physicochemical; conditions: electrode spacing 2.54 mm, rate of rise 500 V/sec
Method: (§1) Dielectric breakdown strength and dielectric constant were measured for PE-1, PE-2, CE-1 to CE-4. The dielectric constants presented in Table 7, below, were measured using the broadband Novocontrol Dielectric Spectrometer per ASTM D150-11. The dielectric breakdown strengths presented in Table 7 were measured according to ASTM D877-13, Procedure A, with the following modification: spacing between the electrodes was 2.54 mm and rate of rise was 500 V/sec.

[2] = Dielectric constant, ASTM D150-11; assay type: physicochemical
Method: as §1

rats = assay: Toxicity screening study in rats, 4 h inhalation LC-50; assay type: in vivo
Method: MA-3 (50 g, 160 mmol) was charged to a 3-neck flask equipped with a water-cooled condenser and magnetic stir bar. SbF5 was then added dropwise to the stirring MA-3 and a large exotherm was observed. The resultant reaction mixture was allowed to stir at room temperature for 1 h. GC-FID analysis of the reaction mixture indicated complete consumption of the MA-3 starting material. Water was then added to the mixture with stirring. The fluorous phase was collected and distilled by concentric tube distillation (59° C., 740 mmHg, 98.7 kPa) affording the desired MP-3 (41.2 g, 82% yield) as a colorless liquid. Both E- and Z-isomers were obtained as a mixture. […] The structure was confirmed by GC-MS and ^19F NMR analyses to be that of the desired product.

[3] = Pour point, determined visually; assay type: physicochemical
Method: The useful liquid range of a perfluorinated 1-alkoxypropene compound of the present disclosure is between its pour point and its boiling point. A pour point is the lowest temperature at which the compound is still able to be poured. The pour point can be determined, for example, by ASTM D97-16 “Standard Test Method for Pour Point of Petroleum Products.” In one embodiment, the compounds of the present disclosure have a pour point of less than −100° C., less than −120° C., less than −130° C., or less than −140° C. Pour Point can be measured by placing a sealed glass vial containing 3 mL of the fluid into a refrigerated bath, adjusting temperature incrementally and checking for pouring. Pouring is defined as visible movement of the material during a five second count. This criterion is specified in ASTM D97-16.
One to two milliliters of the sample were placed in a vial and cooled in a bath until it solidified. The sample was then allowed to warm slowly in the bath and observed every 3-5° C.

[4] = Boiling point, ASTM D1120-94; assay type: physicochemical; conditions: temperature at 760 mmHg
Method: Vapor Pressure was measured using the stirred-flask ebulliometer method described in ASTM E1719-97 “Vapor Pressure Measurement by Ebulliometry.” This method is also referred to as “Dynamic Reflux.” The boiling point was measured using ASTM D1120-94 “Standard Test Method for Boiling Point of Engine Coolants.” The method used a 50-mL glass round-bottom flask. Vacuum was measured and controlled using a vacuum controller available from J-KEM Scientific, Inc., St. Louis, Mo., USA. The pressure transducer was calibrated on the day of measurement by comparison with full vacuum and with an electronic barometer located in the same laboratory. The procedure was carried out by slowly heating the material, then applying vacuum until boiling occurred and a steady dropwise reflux rate was established. Pot temperature and pressure reading were recorded, then the vacuum controller was set for a higher absolute pressure and the material was heated further until a new reflux point was established. The pressure level was raised in increments until the vapor pressure curve was obtained up to the atmospheric boiling point.
The boiling point of PE-1 is 60.1° C., which is the temperature at 760 mmHg. The boiling point of PE-2 is 88.1° C., which is the temperature at 760 mmHg.

[5] = Thermal stability with absorbents, GC-FID purity; assay type: physicochemical
Method: The thermal stability was measured by charging 1.0 g of Preparatory Example 2 into glass vials and then adding 0.10 g of absorbent. The samples were stirred for 24 h at 50° C. and then analyzed by GC-FID for decomposition and purity changes.

## FC(F)=C(F)C(F)(F)OC(F)(F)C(F)(F)C(F)(F)F [MA-3, 1,1,2,3,3-pentafluoro-3-(perfluoropropoxy)prop-1-ene, reference compound]
[1]
  Dielectric Breakdown Voltage: 30.7 kV
[2]
  Dielectric Constant (measured at 1 kHz): 2.37

## FC(F)=C(F)C(F)(F)OC(F)(F)C(F)(F)C(F)(F)OC(F)(F)F [MA-31, 1,1,2,3,3-Pentafluoro-3-(1,1,2,2,3,3-hexafluoro-3-(trifluoromethoxy)propoxy)prop-1-ene, reference compound]
[1]
  Dielectric Breakdown Voltage: 39.4 kV
[2]
  Dielectric Constant (measured at 1 kHz): 2.37

## FC(OC(F)(F)C(F)(F)C(F)(F)F)=C(F)C(F)(F)F [PE-1, 1,2,3,3,3-pentafluoro-1-(perfluoropropoxy)prop-1-ene]
rats
  4 h inhalation LC-50: greater than 10,000 ppm
[3]
  Pour point: −145 °C
[4]
  Boiling point: 60.1 °C
[1]
  Dielectric Breakdown Voltage: 41.7 kV
[2]
  Dielectric Constant (measured at 1 kHz): 2.04

## FC(OC(F)(F)C(F)(F)C(F)(F)OC(F)(F)F)=C(F)C(F)(F)F [PE-2, 1,2,3,3,3-pentafluoro-1-(1,1,2,2,3,3-hexafluoro-3-(trifluoromethoxy)propoxy)prop-1-ene]
[3]
  Pour point: −140 °C
[4]
  Boiling point: 88.1 °C
[5]; 4 Angstrom Molecular Sieves, 24 h at 50° C.
  Purity (%): 99.5%
[5]; Activated Carbon, 24 h at 50° C.
  Purity (%): 99.5%
[5]; Basic Alumina, 24 h at 50° C.
  Purity (%): 99.5%
[5]; K2CO3, 24 h at 50° C.
  Purity (%): 99.3%
[5]; No Absorbent, 24 h at 50° C.
  Purity (%): 99.5%
[5]; Silica Gel, 24 h at 50° C.
  Purity (%): 99.4%
[1]
  Dielectric Breakdown Voltage: >60 kV
[2]
  Dielectric Constant (measured at 1 kHz): 2.04
